Data published in ChEMBL document CHEMBL6127039, “An update on small molecule compounds targeting synthetic lethality for cancer therapy” (Eur J Med Chem, 2024).
One block for each compound: values may come before it.

Tests used:
[1] = Inhibition of DNA-PK (unknown origin) expressed in human HeLa cells; assay type: cell-based
[2] = Antiproliferative activity against human HCT116-MTAP null cells assessed as reduction in cell growth incubated for 72 hrs by MTT assay; assay type: functional, cell-based
[3] = molecular target: Protein arginine N-methyltransferase 5 (Homo sapiens, UniProt O14744); test: Binding affinity to PRMT5 (unknown origin) assessed as inhibition constant
[4] = molecular target: Serine/threonine-protein kinase ATR (Homo sapiens, UniProt Q13535); test: Inhibition of human recombinant ATR incubated for 40 mins by fluorescence based analysis
[5] = molecular target: Poly [ADP-ribose] polymerase 1 (Homo sapiens, UniProt P09874); test: Inhibition of PARP-1 (unknown origin)
[6] = AUC (0 to t) in Sprague-Dawley rat at 20 mg/kg, po by LC-MS/MS analysis; assay type: ADME, organism-based; settings: in vivo
[7] = Half life in Sprague-Dawley rat at 20 mg/kg, po by LC-MS/MS analysis; assay type: ADME, organism-based; settings: in vivo
MV4-11 = test: Antiproliferative activity against human MV4-11 cells assessed as reduction in cell viability incubated for 72 hrs by MTS assay; assay type: functional, cell-based; settings: MV4-11, 72 h
[8] = molecular target: T1, Serine/threonine-protein kinase Chk1 (Homo sapiens, UniProt O14757); test: Inhibition of CHK1 (unknown origin)
T1 sequence (O14757 whole entry): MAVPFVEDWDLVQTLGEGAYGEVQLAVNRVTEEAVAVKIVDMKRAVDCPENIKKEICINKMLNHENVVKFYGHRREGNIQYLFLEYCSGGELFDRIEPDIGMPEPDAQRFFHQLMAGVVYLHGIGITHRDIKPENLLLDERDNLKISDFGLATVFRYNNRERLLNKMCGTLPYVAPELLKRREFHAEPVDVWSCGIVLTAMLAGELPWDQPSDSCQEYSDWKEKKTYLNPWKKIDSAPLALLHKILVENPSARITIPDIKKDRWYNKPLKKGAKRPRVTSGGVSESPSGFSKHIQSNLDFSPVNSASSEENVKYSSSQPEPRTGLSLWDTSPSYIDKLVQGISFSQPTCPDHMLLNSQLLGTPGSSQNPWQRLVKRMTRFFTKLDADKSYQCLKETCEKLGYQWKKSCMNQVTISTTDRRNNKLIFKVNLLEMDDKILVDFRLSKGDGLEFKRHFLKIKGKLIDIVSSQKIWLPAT

[9] = molecular target: T2, DNA repair protein RAD51 homolog 1 (Homo sapiens, UniProt Q06609); test: Inhibition of RAD51 (unknown origin)
T2 sequence (Q06609 whole entry): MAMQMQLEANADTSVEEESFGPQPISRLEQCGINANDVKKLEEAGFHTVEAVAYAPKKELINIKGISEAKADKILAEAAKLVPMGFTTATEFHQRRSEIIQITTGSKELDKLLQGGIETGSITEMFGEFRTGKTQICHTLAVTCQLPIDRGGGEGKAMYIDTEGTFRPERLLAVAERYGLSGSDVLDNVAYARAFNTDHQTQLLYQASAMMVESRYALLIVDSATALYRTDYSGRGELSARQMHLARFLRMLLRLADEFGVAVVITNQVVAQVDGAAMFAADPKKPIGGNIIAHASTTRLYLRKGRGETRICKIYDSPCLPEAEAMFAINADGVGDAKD

[10] = molecular target: Serine/threonine-protein kinase VRK2 (Homo sapiens, UniProt Q86Y07); test: Inhibition of VRK2 (14 to 335 residues) (unknown origin) extracted from Escherichia coli BL21 (DE3)-R3 cells
[11] = molecular target: Serine-protein kinase ATM (Homo sapiens, UniProt Q13315); test: Inhibition of ATM (unknown origin)
[12] = molecular target: Serine/threonine-protein kinase mTOR (Homo sapiens, UniProt P42345); test: Inhibition of human mTOR
MDA-MB-436 = test: Antiproliferative activity against human MDA-MB-436 cells assessed as reduction in cell viability; assay type: functional, cell-based

Chain of Serine/threonine-protein kinase ATR (Q13535 whole entry): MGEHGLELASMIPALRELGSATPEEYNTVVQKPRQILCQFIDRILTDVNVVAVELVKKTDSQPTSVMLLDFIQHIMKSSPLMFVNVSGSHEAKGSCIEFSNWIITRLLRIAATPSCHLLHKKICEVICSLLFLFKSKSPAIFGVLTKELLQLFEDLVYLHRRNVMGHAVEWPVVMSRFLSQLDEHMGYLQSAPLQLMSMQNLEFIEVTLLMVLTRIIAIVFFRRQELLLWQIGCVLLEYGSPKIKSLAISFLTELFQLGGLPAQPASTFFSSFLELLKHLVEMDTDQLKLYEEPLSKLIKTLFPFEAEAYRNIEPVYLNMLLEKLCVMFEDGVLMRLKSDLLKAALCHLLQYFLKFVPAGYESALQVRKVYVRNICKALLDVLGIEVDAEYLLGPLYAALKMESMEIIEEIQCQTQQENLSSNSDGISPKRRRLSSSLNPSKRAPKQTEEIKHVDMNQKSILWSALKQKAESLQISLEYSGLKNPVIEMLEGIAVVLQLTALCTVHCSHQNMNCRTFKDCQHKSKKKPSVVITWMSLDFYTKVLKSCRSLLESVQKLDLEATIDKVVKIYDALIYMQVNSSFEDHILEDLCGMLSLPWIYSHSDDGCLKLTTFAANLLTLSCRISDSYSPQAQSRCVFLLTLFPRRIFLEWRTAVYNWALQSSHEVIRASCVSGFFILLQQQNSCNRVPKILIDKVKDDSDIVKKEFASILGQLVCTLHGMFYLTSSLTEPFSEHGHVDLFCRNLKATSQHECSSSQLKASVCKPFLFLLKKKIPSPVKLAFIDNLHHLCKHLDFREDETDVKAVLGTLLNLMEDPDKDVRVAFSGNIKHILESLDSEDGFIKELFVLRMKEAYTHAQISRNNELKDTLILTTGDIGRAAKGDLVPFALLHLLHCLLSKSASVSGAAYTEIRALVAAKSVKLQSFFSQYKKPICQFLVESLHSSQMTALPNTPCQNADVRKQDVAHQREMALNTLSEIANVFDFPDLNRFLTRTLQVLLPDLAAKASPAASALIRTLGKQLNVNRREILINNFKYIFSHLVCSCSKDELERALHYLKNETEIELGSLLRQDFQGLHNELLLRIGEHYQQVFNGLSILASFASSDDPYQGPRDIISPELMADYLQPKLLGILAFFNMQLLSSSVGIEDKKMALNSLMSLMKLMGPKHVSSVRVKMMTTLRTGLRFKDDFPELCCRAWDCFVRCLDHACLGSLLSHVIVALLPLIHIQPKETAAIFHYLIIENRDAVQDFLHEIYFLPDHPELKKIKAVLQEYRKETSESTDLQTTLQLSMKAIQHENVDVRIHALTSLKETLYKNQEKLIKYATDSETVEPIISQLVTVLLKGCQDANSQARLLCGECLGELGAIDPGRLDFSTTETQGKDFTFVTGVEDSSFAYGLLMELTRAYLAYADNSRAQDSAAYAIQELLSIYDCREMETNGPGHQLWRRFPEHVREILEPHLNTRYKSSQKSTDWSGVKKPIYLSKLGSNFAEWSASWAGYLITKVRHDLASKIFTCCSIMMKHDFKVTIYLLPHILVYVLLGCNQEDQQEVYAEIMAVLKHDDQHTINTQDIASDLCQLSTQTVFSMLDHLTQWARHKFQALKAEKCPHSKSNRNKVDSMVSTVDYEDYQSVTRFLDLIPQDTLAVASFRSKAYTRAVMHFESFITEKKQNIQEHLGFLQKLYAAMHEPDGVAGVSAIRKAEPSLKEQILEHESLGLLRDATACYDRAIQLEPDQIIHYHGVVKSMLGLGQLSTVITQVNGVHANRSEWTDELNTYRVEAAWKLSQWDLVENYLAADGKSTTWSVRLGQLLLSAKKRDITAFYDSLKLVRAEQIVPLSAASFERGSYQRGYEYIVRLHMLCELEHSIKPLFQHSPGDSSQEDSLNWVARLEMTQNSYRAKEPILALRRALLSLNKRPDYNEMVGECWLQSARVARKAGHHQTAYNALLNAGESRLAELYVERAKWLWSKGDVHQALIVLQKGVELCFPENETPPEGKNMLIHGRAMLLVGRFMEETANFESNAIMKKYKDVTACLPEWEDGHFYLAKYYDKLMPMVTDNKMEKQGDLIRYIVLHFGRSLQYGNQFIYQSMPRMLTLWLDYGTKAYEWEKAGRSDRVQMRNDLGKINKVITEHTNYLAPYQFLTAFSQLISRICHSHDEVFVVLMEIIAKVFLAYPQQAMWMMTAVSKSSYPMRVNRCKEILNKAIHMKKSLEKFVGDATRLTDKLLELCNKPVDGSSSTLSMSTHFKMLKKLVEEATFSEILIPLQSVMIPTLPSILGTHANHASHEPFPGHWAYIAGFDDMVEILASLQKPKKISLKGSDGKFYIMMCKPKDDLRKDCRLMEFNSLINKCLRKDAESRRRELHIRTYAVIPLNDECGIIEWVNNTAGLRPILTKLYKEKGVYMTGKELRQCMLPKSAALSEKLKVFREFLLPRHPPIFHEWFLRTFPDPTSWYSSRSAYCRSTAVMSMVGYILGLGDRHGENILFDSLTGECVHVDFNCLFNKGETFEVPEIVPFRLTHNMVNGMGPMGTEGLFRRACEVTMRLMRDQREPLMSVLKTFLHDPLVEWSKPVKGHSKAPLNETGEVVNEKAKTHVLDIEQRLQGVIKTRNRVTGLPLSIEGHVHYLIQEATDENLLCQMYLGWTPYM
Chain of Serine/threonine-protein kinase VRK2 (Q86Y07 whole entry, the tested form may be a part): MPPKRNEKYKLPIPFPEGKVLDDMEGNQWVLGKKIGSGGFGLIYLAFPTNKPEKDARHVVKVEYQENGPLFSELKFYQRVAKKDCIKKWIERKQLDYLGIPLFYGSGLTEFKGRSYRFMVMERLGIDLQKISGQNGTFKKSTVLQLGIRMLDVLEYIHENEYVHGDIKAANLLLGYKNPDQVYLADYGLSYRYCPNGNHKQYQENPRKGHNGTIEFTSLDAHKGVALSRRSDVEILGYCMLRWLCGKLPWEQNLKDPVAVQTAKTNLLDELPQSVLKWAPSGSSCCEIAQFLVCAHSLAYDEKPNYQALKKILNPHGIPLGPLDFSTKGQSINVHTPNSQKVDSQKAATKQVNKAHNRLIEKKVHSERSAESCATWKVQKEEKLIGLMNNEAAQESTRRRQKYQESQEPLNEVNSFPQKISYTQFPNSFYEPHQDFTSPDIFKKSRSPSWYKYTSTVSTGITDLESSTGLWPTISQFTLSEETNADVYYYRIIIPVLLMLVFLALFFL
Chain of Poly [ADP-ribose] polymerase 1 (P09874 whole entry): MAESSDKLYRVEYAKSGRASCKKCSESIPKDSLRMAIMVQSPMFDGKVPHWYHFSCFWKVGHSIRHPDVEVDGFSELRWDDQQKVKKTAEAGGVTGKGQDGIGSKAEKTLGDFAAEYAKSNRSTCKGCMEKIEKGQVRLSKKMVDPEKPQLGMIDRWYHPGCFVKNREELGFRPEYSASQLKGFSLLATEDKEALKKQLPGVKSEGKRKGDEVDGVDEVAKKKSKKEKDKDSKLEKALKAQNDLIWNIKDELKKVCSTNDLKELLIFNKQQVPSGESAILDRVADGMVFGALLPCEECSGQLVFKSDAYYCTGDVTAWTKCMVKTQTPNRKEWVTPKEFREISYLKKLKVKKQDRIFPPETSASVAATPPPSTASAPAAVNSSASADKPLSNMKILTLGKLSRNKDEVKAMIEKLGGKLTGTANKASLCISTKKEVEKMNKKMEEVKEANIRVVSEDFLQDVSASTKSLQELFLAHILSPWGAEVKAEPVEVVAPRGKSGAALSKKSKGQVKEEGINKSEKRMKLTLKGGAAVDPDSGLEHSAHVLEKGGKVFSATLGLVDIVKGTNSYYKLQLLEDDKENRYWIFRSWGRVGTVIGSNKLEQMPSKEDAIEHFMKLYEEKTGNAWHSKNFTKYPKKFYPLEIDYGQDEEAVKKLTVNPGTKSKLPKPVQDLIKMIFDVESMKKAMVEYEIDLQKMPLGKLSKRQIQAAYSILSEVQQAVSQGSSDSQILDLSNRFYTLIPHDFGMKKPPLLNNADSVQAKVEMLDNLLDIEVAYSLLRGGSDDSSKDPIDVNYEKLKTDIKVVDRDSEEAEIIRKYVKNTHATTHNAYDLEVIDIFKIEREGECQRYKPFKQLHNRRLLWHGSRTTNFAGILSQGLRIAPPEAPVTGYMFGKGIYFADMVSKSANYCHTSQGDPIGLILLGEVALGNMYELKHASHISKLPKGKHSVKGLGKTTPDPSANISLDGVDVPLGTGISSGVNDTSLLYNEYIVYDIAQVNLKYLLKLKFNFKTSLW
Chain of Protein arginine N-methyltransferase 5 (O14744 whole entry): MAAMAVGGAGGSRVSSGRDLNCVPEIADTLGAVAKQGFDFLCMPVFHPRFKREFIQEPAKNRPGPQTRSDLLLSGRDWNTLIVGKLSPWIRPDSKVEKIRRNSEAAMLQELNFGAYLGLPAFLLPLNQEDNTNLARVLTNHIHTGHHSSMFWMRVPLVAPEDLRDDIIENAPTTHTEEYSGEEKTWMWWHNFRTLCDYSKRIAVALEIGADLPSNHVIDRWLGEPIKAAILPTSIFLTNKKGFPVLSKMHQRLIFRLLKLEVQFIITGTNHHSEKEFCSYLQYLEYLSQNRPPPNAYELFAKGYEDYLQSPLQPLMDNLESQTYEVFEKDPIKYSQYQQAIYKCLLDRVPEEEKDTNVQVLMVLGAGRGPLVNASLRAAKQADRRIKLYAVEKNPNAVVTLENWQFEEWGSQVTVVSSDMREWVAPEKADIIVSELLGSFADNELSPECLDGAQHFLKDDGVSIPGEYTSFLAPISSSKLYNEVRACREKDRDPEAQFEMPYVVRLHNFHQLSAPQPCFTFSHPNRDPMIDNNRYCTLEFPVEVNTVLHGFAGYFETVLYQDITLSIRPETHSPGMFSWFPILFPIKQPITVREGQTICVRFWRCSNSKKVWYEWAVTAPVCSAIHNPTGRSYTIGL

Compound: C[C@@H]1COCCN1c1nc(-c2ccnn2C)c2c(n1)c(-c1ccn[nH]1)nn2C
- IC50 [4]: 1 nM

Compound: Cc1ccoc1C(=O)N1CCCN(C(=O)c2ccc(-c3nc4c(C(N)=O)cccc4[nH]3)cc2)CC1
- IC50 [5]: 22.8 nM

Compound: COC1/C=C/Cc2cnc3cc(C)c(cn23)Nc2ncc3c(n2)n(c(=O)n3C)CC1 (stereo unspecified)
- IC50 [1]: 4 nM

Compound: Cn1cc(-c2cnc(Nc3ccc(C#N)nc3)nc2N[C@H]2CCCNC2)cn1
- AUCt ([6]; po, 20 mg/kg): 1370 ng·h/mL
- half-life [7]: 5.3 h
- IC50 (MV4-11): 35 nM

Compound: Cc1cc2ncc3n2cc1Nc1ncc2c(n1)n(c(=O)n2C)CCCCC3
- IC50 [1]: 4 nM

Compound: COc1cccc(NC(=O)c2cc(-c3ccc(CC4C(=O)N(c5cccc(C(=O)O)c5)N=C4C)o3)ccc2Cl)c1 (stereo unspecified)
- IC50 [1]: 500 nM

Compound: Cc1cc(C(N)=O)ccc1Nc1ncc2c(n1)n(C1CCOCC1)c(=O)n2C
- IC50 [1]: 0.08 nM

Compound: Nc1nc2cc(F)c(C(=O)N(Cc3ccc(C(F)(F)F)cn3)C34CC(C3)C4)cc2c2c1COC2
- IC50 [2]: 8 nM

Compound: N#Cc1ncc(Nc2ncc(-c3ccccc3)s2)cc1N[C@@H]1CCNC1
- IC50 [8]: 4.25 nM
- AUC(0-t) ([6]; Sprague-Dawley): 10700 ng·h/mL

Compound: O=c1nc(/C=C/c2cccnc2)n(Cc2ccccc2)c2ccccc12
- IC50 [9]: 4300 nM

Compound: COc1cccc(NC(=O)c2cc(-c3ccc(CC4C(=O)N(c5cccc(C(=O)O)c5)N=C4C(F)(F)F)o3)ccc2Cl)c1 (stereo unspecified)
- IC50 [1]: 110 nM

Compound: CC(C)CCN1c2nc(Nc3cc(F)c(O)c(F)c3)ncc2N(C)C(=O)[C@@H]1C
- IC50 [10]: 196 nM

Compound: Cn1c(=O)n2c3ccccc3oc3c(-c4ccc(OCCCN5CCCCC5)nc4)c(F)cc4ncc1c2c43
- IC50 [11]: 0.45 nM

Compound: O=c1nc(/C=C/c2cccnc2)n(Cc2ccc(I)cc2)c2ccccc12
- IC50 [9]: 720 nM

Compound: O=C(c1cc(Cc2n[nH]c(=O)c3ccccc23)ccc1F)N1CCN(C(=O)C2CC2)CC1 [OLAPARIB]
- IC50 (MDA-MB-436): 23900 nM

Second part, led by results:

- IC50 [1]: 3120 nM
Compound: COc1cccc(NC(=O)c2cc(-c3ccc(/C=C4\C(=O)N(c5cccc(C(=O)O)c5)N=C4C)o3)ccc2Cl)c1

- Ki [3]: 0.05 nM
Compound: Cc1cc2cc(C(=O)N(Cc3ccc(C(F)(F)F)cn3)[C@@H]3CCCc4cn[nH]c43)ccc2nc1N
- IC50 [2]: 10 nM

- IC50 [4]: 16 nM
Compound: C[C@@H]1COC[C@H]2COc3c(nc(-c4ccnc5[nH]ccc45)nc3C(C)(C)C#N)N21

- IC50 [1]: 240 nM
Compound: COc1cccc(NC(=O)c2cc(-c3ccc(CC4C(=O)N(c5cccc(-c6nnn[nH]6)c5)N=C4C)o3)ccc2Cl)c1 (stereo unspecified)

- IC50 [12]: 120 nM
- IC50 [4]: 1 nM
Compound: C[C@@H]1COCCN1c1cc([C@]2(O)C[C@H]3CC[C@@H](C2)O3)c2cnn(-c3cc[nH]n3)c2n1 [CAMONSERTIB]

- IC50 [11]: 480 nM
Compound: COc1cc2ncn(-c3cc(OCc4ccccc4C(F)(F)F)c(C(N)=O)s3)c2cc1OC [GW843682X]
